Measured values: US20130274338A1, “PHARMACEUTICAL COMPOSITIONS COMPRISING DGLA, 15-OHEPA, AND/OR 15-HETRE AND METHODS OF REDUCING SEBUM PRODUCTION USING SAME” (priority 2012, published 2013)
Converted amounts (≈) assume the structure as drawn.

Test system: P. acnes
Experiment: Agar dilution method, growth of P. acnes and MIC, single compounds
Type: cell-based, Propionibacterium acnes
Design: key to Growth Index Plate 1 / Growth Index Plate 2 / Growth Index Plate 3 / Growth Index Avg: +++: confluent growth (comparable to control); ++: less confluent growth; +: marked reduction in growth to multiple tiny, single colonies; −: no growth present
Conditions: for MIC: Cutibacterium acnes, read-out: MIC (mg/mL) as per P-11-0007 or P-11-0008 Addendum A
Description: Several compounds including fatty acids such as DGLA, 15-OHEPA, and 15-HETrE were tested to determine their capacity to inhibit the growth of P. acnes. In an exemplary method, an agar dilution method was used to determine the minimum inhibitory concentration (MIC) of each tested compound. Briefly, the agar dilution method involved preparing a series of concentrations of each compound (e.g., nicotinamide, benzoyl peroxide, adapalene, metronidazole, DGLA, 15-OHEPA, and 15-HETrE) in a Reinforced Clostridial Agar (RCA) media that facilitates growth of P. acnes under anaerobic conditions. An inoculum of P. acnes was prepared by incubation of P. acnes for approximately seven days at 35-37° C. to achieve a ≧1.0 OD600 inoculum of P. acnes in RCM broth. A portion of this inoculum was then added to the surface of each plate as a 10 μL spot and incubated at 35-37° C. for 72 hours or more. Growth of P. acnes was then observed and compared to control plates in which no compound has been added, and positive inhibition plates prepared with erythromycin. […] The growth of P. acnes in the presence of nicotinamide, benzoyl peroxide, adapalene, metronidazole, DGLA, 15-OHEPA, and 15-HETrE was determined with varying concentrations of the compound (see, Table 2). Next, the MIC was determined as the concentration at which a marked reduction (+) occurs in the appearance of growth on the test plate (as per Clinical and Laboratory Standards Institute M11-A7).

[1] = compound alone, MIC = concentration with marked reduction (+) of growth

SMILES	MIC [1] [mg/mL]	Growth Index Avg (compound at 0.2 mg/mL)	Growth Index Plate 1 (compound at 0.2 mg/mL)	Growth Index Plate 2 (compound at 0.2 mg/mL)	Growth Index Plate 3 (compound at 0.2 mg/mL)	Growth Index Avg (compound at 0.4 mg/mL)	Growth Index Plate 1 (compound at 0.4 mg/mL)	Growth Index Plate 2 (compound at 0.4 mg/mL)	Growth Index Plate 3 (compound at 0.4 mg/mL)	Growth Index Avg (compound at 0.6 mg/mL)	Growth Index Plate 1 (compound at 0.6 mg/mL)	Growth Index Plate 2 (compound at 0.6 mg/mL)	Growth Index Plate 3 (compound at 0.6 mg/mL)	Growth Index Avg (compound at 0.8 mg/mL)	Growth Index Plate 1 (compound at 0.8 mg/mL)	Growth Index Plate 2 (compound at 0.8 mg/mL)	Growth Index Plate 3 (compound at 0.8 mg/mL)	Growth Index Avg (compound at 1.0 mg/mL)	Growth Index Plate 1 (compound at 1.0 mg/mL)	Growth Index Plate 2 (compound at 1.0 mg/mL)	further results
COc1ccc(-c2ccc3cc(C(=O)O)ccc3c2)cc1C12CC3CC(CC(C3)C1)C2 [Adapalene, 6-[3-(1-adamantyl)-4-methoxyphenyl]-2-naphthoic acid]	> 0.8	+++	+++	+++	+++	+++	+++	+++	+++	++	++	++	+++	++	++	++	++				MIC (mg/mL) as per P-11-0007 or P-11-0008 Addendum A [1]: > 0.8 mg/mL
O=C(OOC(=O)c1ccccc1)c1ccccc1 [Benzoyl Peroxide]	0.6 to 0.8 (≈ 2.48 to 3.3 mM)	+++	+++	+++	+++	+++	+++	+++	+++	++	++	+++	++	+	+	+	+	−	−	−	Growth Index Plate 3 (compound at 1.0 mg/mL): −
Cc1ncc([N+](=O)[O-])n1CCO [Metronidazole]	> 1	+++	+++	+++	+++	+++	+++	+++	+++	+++	+++	+++	+++	+++	+++	+++	+++	+++	+++	++	Growth Index Plate 3 (compound at 1.0 mg/mL): +++
NC(=O)c1cccnc1 [Nicotinamide]	10 to 15 (≈ 81.9 to 123 mM)																				Growth Index Avg (compound at 1 mg/mL): +++; Growth Index Plate 1 (compound at 1 mg/mL): +++; Growth Index Plate 2 (compound at 1 mg/mL): +++; Growth Index Plate 3 (compound at 1 mg/mL): +++; Growth Index Avg (compound at 5 mg/mL): +++; Growth Index Plate 1 (compound at 5 mg/mL): +++; Growth Index Plate 2 (compound at 5 mg/mL): +++; Growth Index Plate 3 (compound at 5 mg/mL): +++; Growth Index Avg (compound at 10 mg/mL): ++; Growth Index Plate 1 (compound at 10 mg/mL): ++; Growth Index Plate 2 (compound at 10 mg/mL): ++; Growth Index Plate 3 (compound at 10 mg/mL): ++; Growth Index Avg (compound at 15 mg/mL): +; Growth Index Plate 1 (compound at 15 mg/mL): −; Growth Index Plate 2 (compound at 15 mg/mL): +; Growth Index Plate 3 (compound at 15 mg/mL): +; Growth Index Avg (compound at 25 mg/mL): −; Growth Index Plate 1 (compound at 25 mg/mL): −; Growth Index Plate 2 (compound at 25 mg/mL): −; Growth Index Plate 3 (compound at 25 mg/mL): −
